Consider 43 compounds from patent US20170166558A1, “O-GLCNAC TRANSFERASE (OGT) INHIBITORS AND USES THEREOF” (President and Fellows of Harvard College, priority 2014, published 2017).

One assay addresses T1, sOGT (Homo sapiens, UniProt O15294).
T1 sequence (O15294 1-665 isoform O15294-4): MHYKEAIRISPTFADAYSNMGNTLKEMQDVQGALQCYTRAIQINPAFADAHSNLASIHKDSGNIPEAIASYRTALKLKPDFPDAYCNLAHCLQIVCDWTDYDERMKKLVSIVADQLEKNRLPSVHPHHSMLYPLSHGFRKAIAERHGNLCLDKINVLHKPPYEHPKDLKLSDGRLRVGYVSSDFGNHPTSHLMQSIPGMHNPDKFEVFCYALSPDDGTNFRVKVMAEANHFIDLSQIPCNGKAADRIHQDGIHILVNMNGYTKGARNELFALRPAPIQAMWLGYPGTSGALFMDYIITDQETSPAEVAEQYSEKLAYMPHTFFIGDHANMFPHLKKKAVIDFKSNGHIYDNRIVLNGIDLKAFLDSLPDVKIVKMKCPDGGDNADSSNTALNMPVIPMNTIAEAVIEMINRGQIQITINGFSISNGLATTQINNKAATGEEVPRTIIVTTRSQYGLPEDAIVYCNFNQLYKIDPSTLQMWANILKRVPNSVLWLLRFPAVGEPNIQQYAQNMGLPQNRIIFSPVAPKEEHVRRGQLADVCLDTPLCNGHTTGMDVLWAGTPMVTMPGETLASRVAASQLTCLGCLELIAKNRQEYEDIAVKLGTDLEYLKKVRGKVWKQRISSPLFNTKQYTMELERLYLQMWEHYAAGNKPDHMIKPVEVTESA
Nature of the assay: Fluorescence polarization displacement screen with fluorescein-linked UDP-GlcNAc analog. In kind it is binding. Conditions: 100 μM treatment. (In general: Polarisation of emitted light reports the rotation of a fluorescent probe.)
Turning to `O=C([C@@H](NS(=O)(=O)c1ccc2[nH]c(=O)[nH]c(=O)c2c1)c1ccccc1)N(Cc1ccco1)Cc1cccs1`, the “% OGT activity (100 μM treatment)” value is reported as “No inhibition”.

For `O=C(NCc1cccs1)[C@H](NS(=O)(=O)c1ccc2[nH]c(=O)ccc2c1)c1ccccc1`, the “% OGT activity (100 μM treatment)” value is listed as “No inhibition”.

`O=C(C1c2ccccc2CN1S(=O)(=O)c1ccc2[nH]c(=O)ccc2c1)N(Cc1ccco1)Cc1cccs1` (stereo not shown) [drawing 114]: the “% OGT activity (100 μM treatment)” value turned out to be 43%.

For `O=C(C1c2ccccc2CCN1S(=O)(=O)c1ccc2[nH]c(=O)ccc2c1)N(Cc1ccco1)Cc1cccs1` (stereo not shown) [drawing 115], the “% OGT activity (100 μM treatment)” value is reported as 65%.

Regarding `O=C(C(NS(=O)(=O)c1ccc2[nH]c(=O)ccc2c1)c1ccccc1C(F)(F)F)N(Cc1ccco1)Cc1cccs1` (stereo not shown) [drawing 119], the “% OGT activity (100 μM treatment)” value was determined as 0.7%.

For `O=C(C(NS(=O)(=O)c1ccc2[nH]c(=O)ccc2c1)c1ccccc1C(F)(F)F)N(Cc1ccco1)Cc1cccs1` (stereo not shown) [drawing 121], the “% OGT activity (100 μM treatment)” value turned out to be 11%.

As for `O=C(C(NS(=O)(=O)c1ccc2[nH]c(=O)ccc2c1)c1ccc(C(F)(F)F)cc1)N(Cc1ccco1)Cc1cccs1` (stereo not shown) [drawing 122], the “% OGT activity (100 μM treatment)” value was determined as 33%.

As for `O=C(C(NS(=O)(=O)c1ccc2[nH]c(=O)ccc2c1)c1ccccc1C(F)(F)F)N(Cc1ccco1)Cc1cccs1` (stereo not shown) [drawing 125], the “% OGT activity (100 μM treatment)” value is listed as 38%.

`O=C(C(NS(=O)(=O)c1ccc2[nH]c(=O)ccc2c1)c1ccc(C(F)(F)F)cc1)N(Cc1ccco1)Cc1cccs1` (stereo not shown) [drawing 126]: the “% OGT activity (100 μM treatment)” value worked out at 54%.

As to `O=C(C(NS(=O)(=O)c1ccc2[nH]c(=O)ccc2c1)c1cccc(C(F)(F)F)c1)N(Cc1ccco1)Cc1cccs1` (stereo not shown) [drawing 127], the “% OGT activity (100 μM treatment)” value is listed as 29%.

In the case of `O=C(C(NS(=O)(=O)c1ccc2[nH]c(=O)ccc2c1)c1cccc(C(F)(F)F)c1)N(Cc1ccco1)Cc1cccs1` (stereo not shown) [drawing 128], the “% OGT activity (100 μM treatment)” value was 7.4%.

`O=C(C(NS(=O)(=O)c1ccc2[nH]c(=O)ccc2c1)c1ccccc1F)N(Cc1ccco1)Cc1cccs1` (stereo not shown) [drawing 129]: the “% OGT activity (100 μM treatment)” value is 0.5%.

Take `Cc1ccc(C(NS(=O)(=O)c2ccc3[nH]c(=O)ccc3c2)C(=O)N(Cc2ccco2)Cc2cccs2)cc1` (stereo not shown) [drawing 130]: the “% OGT activity (100 μM treatment)” value was 11%.

For `Cc1cccc(C(NS(=O)(=O)c2ccc3[nH]c(=O)ccc3c2)C(=O)N(Cc2ccco2)Cc2cccs2)c1` (stereo not shown) [drawing 131], the “% OGT activity (100 μM treatment)” value is recorded as “No inhibition”.

As for `Cc1ccccc1C(NS(=O)(=O)c1ccc2[nH]c(=O)ccc2c1)C(=O)N(Cc1ccco1)Cc1cccs1` (stereo not shown) [drawing 132], the “% OGT activity (100 μM treatment)” value was 4.5%.

Regarding `O=C(C(NS(=O)(=O)c1ccc2[nH]c(=O)ccc2c1)c1ccccc1F)N(Cc1ccco1)Cc1cccs1` (stereo not shown) [drawing 133], the “% OGT activity (100 μM treatment)” value is on record as 24%.

Take `Cc1ccc(C(NS(=O)(=O)c2ccc3[nH]c(=O)ccc3c2)C(=O)N(Cc2ccco2)Cc2cccs2)cc1` (stereo not shown) [drawing 134]: the “% OGT activity (100 μM treatment)” value came out at 66%.

Take `Cc1cccc(C(NS(=O)(=O)c2ccc3[nH]c(=O)ccc3c2)C(=O)N(Cc2ccco2)Cc2cccs2)c1` (stereo not shown) [drawing 135]: the “% OGT activity (100 μM treatment)” value was “No inhibition”.

As to `Cc1ccccc1C(NS(=O)(=O)c1ccc2[nH]c(=O)ccc2c1)C(=O)N(Cc1ccco1)Cc1cccs1` (stereo not shown) [drawing 136], the “% OGT activity (100 μM treatment)” value was determined as 10%.

Still in this assay, the particulars now being: 100 μM treatment; read-out: % OGT activity (100 μM treatment).
With `O=C([C@H](NS(=O)(=O)c1ccc2[nH]c(=O)ccc2c1)c1ccc(O)cc1)N(Cc1ccco1)Cc1cccs1`, the remaining activity at 100 µM was determined as 0.7%.

For the compound `O=C([C@H](NS(=O)(=O)c1ccc2[nH]c(=O)[nH]c(=O)c2c1)c1ccccc1)N(Cc1ccco1)Cc1cccs1`, the remaining activity at 100 µM stood at 68%.

Consider `O=C([C@H](NS(=O)(=O)c1ccc2[nH]c(=O)ccc2c1)c1ccc(F)cc1)N(Cc1ccco1)Cc1cccs1`, for which the remaining activity at 100 µM stood at 5%.

As for `O=C([C@H](NS(=O)(=O)c1ccc2[nH]c(=O)ccc2c1)c1ccc(Cl)cc1)N(Cc1ccco1)Cc1cccs1`, the remaining activity at 100 µM is 22%.

For `O=C([C@H](NS(=O)(=O)c1ccc2[nH]c(=O)ccc2c1)C1CCCCC1)N(Cc1ccco1)Cc1cccs1`, the remaining activity at 100 µM turned out to be 22%.

Take `O=C([C@H](NS(=O)(=O)c1ccc2[nH]c(=O)ccc2c1)c1ccccc1Cl)N(Cc1ccco1)Cc1cccs1`: the remaining activity at 100 µM amounted to 4%.

For the compound `O=C([C@H](NS(=O)(=O)c1ccc2[nH]c(=O)ccc2c1)c1cccs1)N(Cc1ccco1)Cc1cccs1`, the remaining activity at 100 µM was determined as 7%.

Regarding `COc1ccc([C@@H](NS(=O)(=O)c2ccc3[nH]c(=O)ccc3c2)C(=O)N(Cc2ccco2)Cc2cccs2)cc1`, the remaining activity at 100 µM is 2.9%.

On to `O=C([C@H](NS(=O)(=O)c1ccc2[nH]c(=O)ccc2c1)c1cccc(F)c1)N(Cc1ccco1)Cc1cccs1`, for which the remaining activity at 100 µM is 2.6%.

For `O=C([C@@H](NS(=O)(=O)c1ccc2[nH]c(=O)ccc2c1)c1ccc(F)cc1)N(Cc1ccco1)Cc1cccs1`, the remaining activity at 100 µM was 0.9%.

In the case of `CN1CCN(C(=O)[C@H](NS(=O)(=O)c2ccc3[nH]c(=O)ccc3c2)c2ccccc2)CC1`, the remaining activity at 100 µM was 47%.

Consider `CN(Cc1cccs1)C(=O)[C@H](NS(=O)(=O)c1ccc2[nH]c(=O)ccc2c1)c1ccccc1`, for which the remaining activity at 100 µM worked out at 2.5%.

With `O=C([C@H](NS(=O)(=O)c1ccc2[nH]c(=O)ccc2c1)c1ccccc1)N1CCOCC1`, the remaining activity at 100 µM amounted to 47%.

Consider `CCNC(=O)[C@H](NS(=O)(=O)c1ccc2[nH]c(=O)ccc2c1)c1ccccc1`, for which the remaining activity at 100 µM was found to be 26%.

As to `COc1cccc([C@@H](NS(=O)(=O)c2ccc3[nH]c(=O)ccc3c2)C(=O)N(Cc2ccco2)Cc2cccs2)c1`, the remaining activity at 100 µM worked out at 2.5%.

Consider `O=C(NCc1ccco1)[C@H](NS(=O)(=O)c1ccc2[nH]c(=O)ccc2c1)c1ccccc1`, for which the remaining activity at 100 µM came out at 64%.

On to `CN(Cc1ccco1)C(=O)[C@H](NS(=O)(=O)c1ccc2[nH]c(=O)ccc2c1)c1ccccc1`, for which the remaining activity at 100 µM worked out at 5%.

Turning to `O=C([C@H](NS(=O)(=O)c1ccc2[nH]c(=O)ccc2c1)c1ccccc1)N1CCCCC1`, the remaining activity at 100 µM amounted to 22%.

Turning to `CCCC[C@@H](NS(=O)(=O)c1ccc2[nH]c(=O)ccc2c1)C(=O)N(Cc1ccco1)Cc1cccs1`, the remaining activity at 100 µM is 8%.

On to `O=C(C1c2ccccc2CN1S(=O)(=O)c1ccc2[nH]c(=O)ccc2c1)N(Cc1ccco1)Cc1cccs1` (stereo not shown) [drawing 109], for which the remaining activity at 100 µM stood at 56%.

For the compound `O=C(C1c2ccccc2CCN1S(=O)(=O)c1ccc2[nH]c(=O)ccc2c1)N(Cc1ccco1)Cc1cccs1` (stereo not shown) [drawing 110], the remaining activity at 100 µM is 47%.

With `O=C([C@@H](Cc1ccccc1)NS(=O)(=O)c1ccc2[nH]c(=O)ccc2c1)N(Cc1ccco1)Cc1cccs1` [drawing 149], the remaining activity at 100 µM was 53%.

Staying with this assay, now noted: read-out: % OGT activity (100 μM treatment).
Consider `O=C([C@@H](NS(=O)(=O)c1ccc2[nH]c(=O)ccc2c1)c1ccccc1)N(Cc1ccco1)Cc1cccs1`, for which the remaining activity at 100 µM stood at 7%.

On to `O=C([C@H](NS(=O)(=O)c1ccc2[nH]c(=O)ccc2c1)c1ccccc1)N(Cc1ccco1)Cc1cccs1`, for which the remaining activity at 100 µM was determined as 1.73%.
